Test results from ChEMBL document CHEMBL1154070, “QSAR study of Akt/protein kinase B (PKB) inhibitors using support vector machine” (Eur J Med Chem, 2009).

biological target: RAC-alpha serine/threonine-protein kinase (Homo sapiens, UniProt P31749); experiment: Inhibition of Akt
Sequence (P31749 whole entry): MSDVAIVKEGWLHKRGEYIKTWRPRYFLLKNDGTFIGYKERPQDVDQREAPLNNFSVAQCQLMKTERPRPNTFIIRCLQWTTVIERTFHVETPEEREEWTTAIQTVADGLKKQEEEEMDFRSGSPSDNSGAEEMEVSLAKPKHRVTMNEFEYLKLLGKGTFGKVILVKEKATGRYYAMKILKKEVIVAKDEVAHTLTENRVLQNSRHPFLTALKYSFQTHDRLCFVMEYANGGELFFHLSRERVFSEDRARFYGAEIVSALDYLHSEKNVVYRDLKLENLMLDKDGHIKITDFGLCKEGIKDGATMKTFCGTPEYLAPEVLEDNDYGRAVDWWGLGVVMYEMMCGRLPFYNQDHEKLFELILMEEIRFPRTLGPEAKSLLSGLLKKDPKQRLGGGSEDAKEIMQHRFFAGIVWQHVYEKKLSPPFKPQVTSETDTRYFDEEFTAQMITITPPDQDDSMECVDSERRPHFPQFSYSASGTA

| Compound | IC50 [nM] |
| --- | --- |
| N[C@H](CNc1cnc(Cl)c(/C=C/c2ccncc2)c1)Cc1c[nH]c2ccccc12 | 79 |
| N[C@H](COc1cncc(/C=C/c2ccncc2)c1)C(c1ccccc1)c1ccccc1 | 273 |
| N[C@H](COc1cncc(-c2ccc3c(=O)[nH]ccc3c2)c1)Cc1c[nH]c2ccccc12 | 1020 |
| N[C@H](COc1cncc(-c2ccncc2)c1)Cc1c[nH]c2ccccc12 | 245 |
| N[C@H](COc1cncc(C(=O)Nc2ccncc2)c1)Cc1c[nH]c2ccccc12 | 1660 |
| Nc1nccc2cc(-c3cncc(OC[C@@H](N)Cc4c[nH]c5ccccc45)c3)ccc12 | 188 |
| N[C@H](COc1cncc(-c2ccc3c(c2)CC(=O)N3)c1)Cc1ccccc1 | 16 |
| Cc1n[nH]c2cnc(-c3cncc(OC[C@@H](N)Cc4ccccc4)c3)cc12 | 14 |
| N[C@H](COc1cncc(-c2ccc3c(c2)/C(=C/c2ccc[nH]2)C(=O)N3)c1)Cc1ccccc1 | 0.6 |
| N[C@H](COc1cncc(-c2cc3ccncc3s2)c1)Cc1c[nH]c2ccccc12 | 179 |
| N[C@H](COc1cncc(-c2ccc3ccccc3c2)c1)Cc1c[nH]c2ccccc12 | 1120 |
| O=C1C(Sc2cccc(Cl)c2Cl)=C(Cl)C(=O)c2[nH]ncc21 | 12300 |
| Cc1cc(C)c(C[C@H](N)COc2cncc(-c3cc4c(C)n[nH]c4cn3)c2)c(C)c1 | 39 |
| Cc1n[nH]c2cnc(-c3cncc(OC[C@@H](N)Cc4ccc(C(F)(F)F)cc4)c3)cc12 | 18 |
| N[C@H](COc1cncc(-c2ccc3[nH]nc(-c4ccc[nH]4)c3c2)c1)Cc1c[nH]c2ccccc12 | 1.2 |
| N[C@H](COc1cncc(-c2ccc(NC(=O)Nc3ccccc3)cn2)c1)Cc1c[nH]c2ccccc12 | 1120 |
| N[C@H](COc1cncc(-c2ccc3c(c2)C(c2cccs2)C(=O)N3)c1)Cc1c[nH]c2ccccc12 (stereo partly specified) | 0.9 |
| CN(C)c1n[nH]c2ccc(-c3cncc(OC[C@@H](N)Cc4c[nH]c5ccccc45)c3)cc12 | 18 |
| N[C@H](COc1cncc(-c2ccc3[nH]nc(C4CC4)c3c2)c1)Cc1c[nH]c2ccccc12 | 2.6 |
| CCc1ncc(OC[C@@H](N)Cc2c[nH]c3ccccc23)cc1-c1ccc2cnccc2c1 | 0.8 |
| N[C@H](COc1cncc(-c2ccc3c(c2)C(c2c[nH]c4ccccc24)C(=O)N3)c1)Cc1c[nH]c2ccccc12 (stereo partly specified) | 153 |
| Cc1ccc(F)cc1C[C@H](N)COc1cncc(-c2cc3c(C)n[nH]c3cn2)c1 | 3.9 |
| N[C@H](COc1cncc(-c2ccc3c(c2)C(c2ccco2)C(=O)N3)c1)Cc1c[nH]c2ccccc12 (stereo partly specified) | 0.17 |
| N[C@H](COc1cncc(-c2ccc3c(c2)C(c2ccccn2)C(=O)N3)c1)Cc1c[nH]c2ccccc12 (stereo partly specified) | 10.3 |

| Compound | IC50 [nM] |
| --- | --- |
| Cc1n[nH]c2cnc(-c3cncc(OC[C@@H](N)Cc4c(F)cccc4F)c3)cc12 | 65.5 |
| Cc1cc(C[C@H](N)COc2cncc(-c3cc4c(C)n[nH]c4cn3)c2)ccc1F | 2.5 |
| N[C@H](COc1cncc(-c2ccc3ncccc3c2)c1)Cc1c[nH]c2ccccc12 | 312 |
| N[C@H](COc1cncc(-c2ccc3nnccc3c2)c1)Cc1c[nH]c2ccccc12 | 215 |
| Cc1n[nH]c2cnc(-c3cncc(OC[C@@H](N)Cc4cccc(F)c4)c3)cc12 | 8.4 |
| Cc1n[nH]c2cnc(-c3cncc(OC[C@@H](N)Cc4ccc(Br)cc4)c3)cc12 | 5 |
| CCc1n[nH]c2ccc(-c3cncc(OC[C@@H](N)Cc4c[nH]c5ccccc45)c3)cc12 | 1.15 |
| CC1C(=O)Nc2ccc(-c3cncc(OC[C@@H](N)Cc4c[nH]c5ccccc45)c3)cc21 (stereo partly specified) | 4 |
| N[C@H](COc1cncc(-c2ccc3c(c2)C(=O)C(=O)N3)c1)Cc1c[nH]c2ccccc12 | 5.4 |
| N[C@H](COc1cncc(-c2ccc3c(c2)C(C2CC2)C(=O)N3)c1)Cc1c[nH]c2ccccc12 (stereo partly specified) | 3.3 |
| O=c1[nH]c2ccccc2n1C1CCN(Cc2ccc(-c3nc4cc(-n5cnnn5)ccc4nc3-c3ccccc3)cc2)CC1 | 20 |
| Cn1cc(C(CN)Oc2cncc(/C=C/c3ccncc3)c2)c2ccccc21 (stereo unspecified) | 760 |
| O=c1[nH]c2ccccc2n1C1CCN(Cc2ccc(-c3nc4ccc(-n5cnnn5)cc4nc3-c3ccccc3)cc2)CC1 | 63 |
| N[C@H](COc1cncc(-c2ccc3[nH]nc(-c4ccccc4)c3c2)c1)Cc1c[nH]c2ccccc12 | 3.9 |
| N[C@H](COc1cncc(-c2ccc3[nH]nc(C=O)c3c2)c1)Cc1c[nH]c2ccccc12 | 1850 |
| Cc1n[nH]c2cnc(-c3cncc(OC[C@@H](N)Cc4cccc(OCC5CCCCC5)c4)c3)cc12 | 1360 |
| Cc1n[nH]c2cnc(-c3cncc(OC[C@@H](N)Cc4cccc(OCCN)c4)c3)cc12 | 47 |
| Cc1n[nH]c2cnc(-c3cncc(OC[C@@H](N)Cc4ccc(F)c(F)c4F)c3)cc12 | 12 |
| N[C@H](COc1cncc(-c2ccc3[nH]nc(-c4nccs4)c3c2)c1)Cc1c[nH]c2ccccc12 | 9.8 |
| CC(C)=C1C(=O)Nc2ccc(-c3cncc(OC[C@@H](N)Cc4c[nH]c5ccccc45)c3)cc21 | 80 |
| N[C@H](COc1cncc(-c2cnc3c(c2)CC(=O)N3)c1)Cc1c[nH]c2ccccc12 | 7.4 |
| Cc1cc(F)ccc1C[C@H](N)COc1cncc(-c2cc3c(C)n[nH]c3cn2)c1 | 6 |
| Cc1n[nH]c2cnc(-c3cncc(OC[C@@H](N)Cc4cccc(OCCN5CCOCC5)c4)c3)cc12 | 751 |
| Cc1ccc(C2C(=O)Nc3ccc(-c4cncc(OC[C@@H](N)Cc5c[nH]c6ccccc56)c4)cc32)o1 (stereo partly specified) | 0.7 |

| Compound | IC50 [nM] |
| --- | --- |
| N[C@H](COc1cncc(CCc2ccncc2)c1)Cc1c[nH]c2ccccc12 | 210 |
| N[C@H](COc1cncc(-c2ccc3c(c2)C(Cc2ccco2)C(=O)N3)c1)Cc1ccccc1 (stereo partly specified) | 1.4 |
| CC(C)c1nc(-c2ccccc2)c(-c2ccc(CN3CCC(n4c(=O)[nH]c5ccccc54)CC3)cc2)[nH]c1=O | 21200 |
| Cc1n[nH]c2cnc(-c3cncc(OC[C@@H](N)Cc4cccc5c4OC(F)(F)O5)c3)cc12 | 14 |
| N[C@H](COc1cncc(-c2ccc3c(c2)C(c2ccc[nH]2)C(=O)N3)c1)Cc1c[nH]c2ccccc12 (stereo partly specified) | 1.5 |
| Cc1n[nH]c2cnc(-c3cncc(OC[C@@H](N)Cc4cccc(OCC5CCNCC5)c4)c3)cc12 | 6.8 |
| N[C@H](COc1cncc(-c2ccc3c(c2)C(c2cccnc2)C(=O)N3)c1)Cc1c[nH]c2ccccc12 (stereo partly specified) | 10.4 |
| N[C@H](COc1cncc(NC(=O)c2ccncc2)c1)Cc1c[nH]c2ccccc12 | 2020 |
| N[C@H](COc1cncc(-c2ccc3[nH]nc(-c4cccs4)c3c2)c1)Cc1c[nH]c2ccccc12 | 1.3 |
| N[C@H](COc1cncc(-c2ccc(CO)cc2)c1)Cc1c[nH]c2ccccc12 | 4020 |
| N[C@H](COc1cncc(-c2ccc3[nH]c(=O)sc3c2)c1)Cc1c[nH]c2ccccc12 | 99 |
| C(=C\c1cncc(OCC2CCN2)c1)/c1ccncc1 (stereo unspecified) | 10900 |
| CCC1C(=O)Nc2ccc(-c3cncc(OC[C@@H](N)Cc4c[nH]c5ccccc45)c3)cc21 (stereo partly specified) | 52.7 |
| N[C@H](COc1cncc(-c2ccc3c(c2)C(F)(F)C(=O)N3)c1)Cc1c[nH]c2ccccc12 | 1.5 |
| N[C@H](COc1cncc(-c2ccc3c(c2)C(c2ccccc2)C(=O)N3)c1)Cc1c[nH]c2ccccc12 (stereo partly specified) | 5.9 |
| CCc1c(C)[nH]c(C2C(=O)Nc3ccc(-c4cncc(OC[C@@H](N)Cc5c[nH]c6ccccc56)c4)cc32)c1C (stereo partly specified) | 40.3 |
| Nc1n[nH]c2ccc(-c3cncc(OC[C@@H](N)Cc4c[nH]c5ccccc45)c3)cc12 | 2.9 |
| Cc1cc(C2C(=O)Nc3ccc(-c4cncc(OC[C@@H](N)Cc5c[nH]c6ccccc56)c4)cc32)oc1C (stereo partly specified) | 10 |
| N[C@H](COc1cncc(-c2ccc3[nH]nc(N4CCOCC4)c3c2)c1)Cc1c[nH]c2ccccc12 | 18 |
| N[C@H](COc1cncc(-c2ccc3c(c2)C(c2ncc[nH]2)C(=O)N3)c1)Cc1c[nH]c2ccccc12 (stereo partly specified) | 7.2 |
| N[C@H](COc1cncc(-c2cccc3cnccc23)c1)Cc1c[nH]c2ccccc12 | 331 |
| Cn1cccc1C1C(=O)Nc2ccc(-c3cncc(OC[C@@H](N)Cc4c[nH]c5ccccc45)c3)cc21 (stereo partly specified) | 8.2 |
| O=C1C(Nc2cc(F)ccc2F)=C(Cl)C(=O)c2[nH]ncc21 | 16000 |
